Experimental data: PubChem BioAssay AID1963421 (Molecular Pharmacology Branch, DTP, NCI, 2024)

System: 519858-162-T-J1-PDC complex spheroid growth, % test/control
Test: Anticancer human tumor 519858-162-T-J1-PDC patient-derived colon adenocarcinoma cell line growth inhibition [Asc]
Conditions: for IC50: curve of first compound; for viability, T/C: stronger effect = lower value
How it was run: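 Stromal components (HUVEC and hMSC) are co-assembled with the cancer cells into multicellular spheroids. Drugs are then added singly or paired, at concentrations falling by half-log increments from a clinically achievable maximum, capped at 10 microM without known Cmax.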

[1] = second compound 0.00316 µM, first compound 0.00316 µM
[2] = second compound 0.00316 µM, first compound 0.01 µM
[3] = second compound 0.00316 µM, first compound 0.0316 µM
[4] = second compound 0.00316 µM, first compound 0.1 µM
[5] = second compound 0.00316 µM, first compound 0.316 µM
[6] = second compound 0.00316 µM, first compound 1 µM
[7] = second compound 0.01 µM, first compound 0.00316 µM
[8] = second compound 0.01 µM, first compound 0.01 µM
[9] = second compound 0.01 µM, first compound 0.0316 µM
[10] = second compound 0.01 µM, first compound 0.1 µM
[11] = second compound 0.01 µM, first compound 0.316 µM
[12] = second compound 0.01 µM, first compound 1 µM
[13] = second compound 0.0316 µM, first compound 0.00316 µM
[14] = second compound 0.0316 µM, first compound 0.01 µM
[15] = second compound 0.0316 µM, first compound 0.0316 µM
[16] = second compound 0.0316 µM, first compound 0.1 µM
[17] = second compound 0.0316 µM, first compound 0.316 µM
[18] = second compound 0.0316 µM, first compound 1 µM
[19] = second compound 0.1 µM, first compound 0.00316 µM
[20] = second compound 0.1 µM, first compound 0.01 µM
[21] = second compound 0.1 µM, first compound 0.0316 µM
[22] = second compound 0.1 µM, first compound 0.1 µM
[23] = second compound 0.1 µM, first compound 0.316 µM
[24] = second compound 0.1 µM, first compound 1 µM
[25] = second compound 0.316 µM, first compound 0.00316 µM
[26] = second compound 0.316 µM, first compound 0.01 µM
[27] = second compound 0.316 µM, first compound 0.0316 µM
[28] = second compound 0.316 µM, first compound 0.1 µM
[29] = second compound 0.316 µM, first compound 0.316 µM
[30] = second compound 0.316 µM, first compound 1 µM
[31] = second compound 1 µM, first compound 0.00316 µM
[32] = second compound 1 µM, first compound 0.01 µM
[33] = second compound 1 µM, first compound 0.0316 µM
[34] = second compound 1 µM, first compound 0.1 µM
[35] = second compound 1 µM, first compound 0.316 µM
[36] = second compound 1 µM, first compound 1 µM
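Also: seven day drug exposure begun three days after spheroid seeding.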
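For viability, T/C in this document: 100% = DMSO vehicle wells and lower values mean less viable spheroid.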

SMILES: CCN1CCN(Cc2ccc(Nc3ncc(F)c(-c4cc(F)c5nc(C)n(C(C)C)c5c4)n3)nc2)CC1 + CNC(C)C(=O)NC1CN(S(=O)(=O)c2cccc(S(=O)(=O)N3CCC4CCC(C(=O)NC(c5ccccc5)c5ccccc5)N4C(=O)C(NC(=O)C(C)NC)C3)c2)CCC2CCC(C(=O)NC(c3ccccc3)c3ccccc3)N2C1=O
- IC50 (second compound 0.00316 µM): > 1000 nM
- IC50 (second compound 0.01 µM): > 1000 nM
- IC50 (second compound 0.0316 µM): > 1000 nM
- IC50 (second compound 0.1 µM): > 1000 nM
- IC50 (second compound 0.316 µM): > 1000 nM
- IC50 (second compound 1 µM): > 1000 nM
- viability, T/C [1]: 98%
- viability, T/C [2]: 99.6%
- viability, T/C [3]: 127%
- viability, T/C [4]: 115%
- viability, T/C [5]: 84.4%
- viability, T/C [6]: 70%
- viability, T/C [7]: 108%
- viability, T/C [8]: 107%
- viability, T/C [9]: 95.1%
- viability, T/C [10]: 64.7%
- viability, T/C [11]: 79.1%
- viability, T/C [12]: 93%
- viability, T/C [13]: 116%
- viability, T/C [14]: 112%
- viability, T/C [15]: 94.8%
- viability, T/C [16]: 96.6%
- viability, T/C [17]: 86.4%
- viability, T/C [18]: 77.2%
- viability, T/C [19]: 128%
- viability, T/C [20]: 120%
- viability, T/C [21]: 106%
- viability, T/C [22]: 89.3%
- viability, T/C [23]: 84.2%
- viability, T/C [24]: 76.3%
- viability, T/C [25]: 77%
- viability, T/C [26]: 91.7%
- viability, T/C [27]: 120%
- viability, T/C [28]: 67.6%
- viability, T/C [29]: 47.6%
- viability, T/C [30]: 71.7%
- viability, T/C [31]: 115%
- viability, T/C [32]: 117%
- viability, T/C [33]: 107%
- viability, T/C [34]: 80.1%
- viability, T/C [35]: 77.9%
- viability, T/C [36]: 83.4%

SMILES: NC(=O)C(=Cn1cnc(-c2cc(C(F)(F)F)cc(C(F)(F)F)c2)n1)c1cncnc1 + CNC(C)C(=O)NC1CN(S(=O)(=O)c2cccc(S(=O)(=O)N3CCC4CCC(C(=O)NC(c5ccccc5)c5ccccc5)N4C(=O)C(NC(=O)C(C)NC)C3)c2)CCC2CCC(C(=O)NC(c3ccccc3)c3ccccc3)N2C1=O
- IC50 (second compound 0.00316 µM): > 300 nM
- IC50 (second compound 0.01 µM): > 300 nM
- IC50 (second compound 0.0316 µM): > 300 nM
- IC50 (second compound 0.1 µM): > 300 nM
- IC50 (second compound 0.316 µM): > 300 nM
- IC50 (second compound 1 µM): > 300 nM
- viability, T/C (second compound 0.00316 µM, first compound 0.000949 µM): 139%
- viability, T/C (second compound 0.00316 µM, first compound 0.003 µM): 116%
- viability, T/C (second compound 0.00316 µM, first compound 0.00949 µM): 102%
- viability, T/C (second compound 0.00316 µM, first compound 0.03 µM): 83.8%
- viability, T/C (second compound 0.00316 µM, first compound 0.0949 µM): 71.7%
- viability, T/C (second compound 0.00316 µM, first compound 0.3 µM): 71.2%
- viability, T/C (second compound 0.01 µM, first compound 0.000949 µM): 91.2%
- viability, T/C (second compound 0.01 µM, first compound 0.003 µM): 80%
- viability, T/C (second compound 0.01 µM, first compound 0.00949 µM): 67.5%
- viability, T/C (second compound 0.01 µM, first compound 0.03 µM): 70.7%
- viability, T/C (second compound 0.01 µM, first compound 0.0949 µM): 67%
- viability, T/C (second compound 0.01 µM, first compound 0.3 µM): 55.6%
- viability, T/C (second compound 0.0316 µM, first compound 0.000949 µM): 87%
- viability, T/C (second compound 0.0316 µM, first compound 0.003 µM): 85.7%
- viability, T/C (second compound 0.0316 µM, first compound 0.00949 µM): 80.1%
- viability, T/C (second compound 0.0316 µM, first compound 0.03 µM): 54.8%
- viability, T/C (second compound 0.0316 µM, first compound 0.0949 µM): 65%
- viability, T/C (second compound 0.0316 µM, first compound 0.3 µM): 63.5%
- viability, T/C (second compound 0.1 µM, first compound 0.000949 µM): 99.2%
- viability, T/C (second compound 0.1 µM, first compound 0.003 µM): 96.3%
- viability, T/C (second compound 0.1 µM, first compound 0.00949 µM): 98.4%
- viability, T/C (second compound 0.1 µM, first compound 0.03 µM): 67.8%
- viability, T/C (second compound 0.1 µM, first compound 0.0949 µM): 50.1%
- viability, T/C (second compound 0.1 µM, first compound 0.3 µM): 71.2%
- viability, T/C (second compound 0.316 µM, first compound 0.000949 µM): 86.3%
- viability, T/C (second compound 0.316 µM, first compound 0.003 µM): 105%
- viability, T/C (second compound 0.316 µM, first compound 0.00949 µM): 67.1%
- viability, T/C (second compound 0.316 µM, first compound 0.03 µM): 65.7%
- viability, T/C (second compound 0.316 µM, first compound 0.0949 µM): 69.5%
- viability, T/C (second compound 0.316 µM, first compound 0.3 µM): 67.6%
- viability, T/C (second compound 1 µM, first compound 0.000949 µM): 88.4%
- viability, T/C (second compound 1 µM, first compound 0.003 µM): 71.4%
- viability, T/C (second compound 1 µM, first compound 0.00949 µM): 76.5%
- viability, T/C (second compound 1 µM, first compound 0.03 µM): 51.4%
- viability, T/C (second compound 1 µM, first compound 0.0949 µM): 72.3%
- viability, T/C (second compound 1 µM, first compound 0.3 µM): 109%

SMILES: O=C(c1ccc(F)c(F)c1Nc1ccc(I)cc1F)N1CC(O)([C@@H]2CCCCN2)C1 + CNC(C)C(=O)NC1CN(S(=O)(=O)c2cccc(S(=O)(=O)N3CCC4CCC(C(=O)NC(c5ccccc5)c5ccccc5)N4C(=O)C(NC(=O)C(C)NC)C3)c2)CCC2CCC(C(=O)NC(c3ccccc3)c3ccccc3)N2C1=O
- IC50 (second compound 0.00316 µM): 316 nM
- IC50 (second compound 0.01 µM): 224 nM
- IC50 (second compound 0.0316 µM): 284 nM
- IC50 (second compound 0.1 µM): 241 nM
- IC50 (second compound 0.316 µM): 254 nM
- IC50 (second compound 1 µM): 268 nM
- viability, T/C [1]: 119%
- viability, T/C [2]: 133%
- viability, T/C [3]: 95.9%
- viability, T/C [4]: 111%
- viability, T/C [5]: 49.7%
- viability, T/C [6]: 13.8%
- viability, T/C [7]: 93.9%
- viability, T/C [8]: 112%
- viability, T/C [9]: 74.7%
- viability, T/C [10]: 86.2%
- viability, T/C [11]: 34.6%
- viability, T/C [12]: 18.8%
- viability, T/C [13]: 121%
- viability, T/C [14]: 107%
- viability, T/C [15]: 79.7%
- viability, T/C [16]: 101%
- viability, T/C [17]: 44.2%
- viability, T/C [18]: 14.3%
- viability, T/C [19]: 99.4%
- viability, T/C [20]: 86.4%
- viability, T/C [21]: 107%
- viability, T/C [22]: 84.5%
- viability, T/C [23]: 39.2%
- viability, T/C [24]: 13.5%
- viability, T/C [25]: 80.6%
- viability, T/C [26]: 122%
- viability, T/C [27]: 86.8%
- viability, T/C [28]: 79.2%
- viability, T/C [29]: 43.5%
- viability, T/C [30]: 16%
- viability, T/C [31]: 77.5%
- viability, T/C [32]: 89.2%
- viability, T/C [33]: 117%
- viability, T/C [34]: 79.7%
- viability, T/C [35]: 45.4%
- viability, T/C [36]: 18.6%
